Legend:
[1] = test system: Mus sp.; test: In vivo for PAF antagonist activity in mice after oral administration; type: functional
[2] = Plasma half life was evaluated in Dog; type: ADME, organism-based, Canis lupus familiaris
[3] = Oral bioavailability in dog; type: ADME, organism-based, Canis lupus familiaris; conditions: in vivo
[4] = Inhibition of [3H]nitrendipine binding to dihydropyridine sites of bovine frontal cortex membranes; type: tissue-based, Bos taurus
[5] = species on record: Rattus norvegicus; test: Calcium channel blocking activity in K+ stimulated rat aorta assay; type: functional
[6] = Plasma half life was evaluated; type: ADME, organism-based, Canis lupus familiaris; conditions: dog
[7] = Plasma half life was evaluated in dog; type: ADME, organism-based, Canis lupus familiaris
[8] = Half life was evaluated in dog; type: ADME, organism-based, Canis lupus familiaris; conditions: in vivo

Compound: CCO/C(O)=C1\C(COCCn2c(C)nc(C)c2C)=NC(C)=C(C(=O)Nc2ccccc2)C1c1ccccc1Cl (stereo unspecified)
- ED50 ([1]; Mus sp., po, read-out: ED50): 18 mg/kg

Compound: CCO/C(O)=C1\C(COCCn2c(C)nc3ccccc32)=NC(C)=C(C(=O)NC(C)(C)C)C1c1ccccc1Cl (stereo unspecified)
- half-life [2]: 1.2 h
- bioavailability [3]: 30%
- ED50 ([1]; Mus sp., po, read-out: ED50): 34 mg/kg

Compound: CCO/C(O)=C1\C(COCCn2c(C)nc3cccnc32)=NC(C)=C(C(=O)Nc2ccccn2)C1c1ccccc1Cl (stereo unspecified)
- ED50 ([1]; Mus sp., po, read-out: ED50): 25 mg/kg

Compound: CCO/C(O)=C1\C(COCCn2c(C)nc(C)c2C)=NC(C)=C(C(=O)OC)[C@H]1c1ccccc1Cl
- IC50 [4]: > 10000 nM
- IC50 [5]: > 1000 nM

Compound: CCO/C(O)=C1\C(COCCn2c(C)nc3cnccc32)=NC(C)=C(C(=O)Nc2ccccn2)C1c1ccccc1Cl (stereo unspecified)
- half-life [6]: 0.75 h
- bioavailability [3]: 4%
- ED50 ([1]; Mus sp., po, read-out: ED50): 2 mg/kg

Compound: CCOC(=O)C1=C(c2ccc(-n3c(C)nc4cnccc43)cc2)NC(C)=C(C(=O)Nc2ccccn2)C1c1ccccc1Cl (stereo in doubt; 18)
- half-life [7]: 1.2 h
- bioavailability [3]: 100%
- ED50 [1]: 0.26 mg/kg

Compound: CCOC(=O)C1=C(c2ccc(-n3c(C)nc4cnccc43)cc2)NC(C)=C(C(=O)Nc2ccccn2)C1c1ccccc1Cl (single isomer, unassigned; (-))
- ED50 [1]: 3.8 mg/kg

Compound: CCO/C(O)=C1\C(COCCn2c(C)nc(C)c2C)=NC(C)=C(C(=O)NC(C)(C)C)C1c1ccccc1Cl (stereo unspecified)
- ED50 ([1]; Mus sp., po, read-out: ED50): 10.1 mg/kg

Compound: CCO/C(O)=C1\C(COCCn2c(C)nc3ccccc32)=NC(C)=C(C(=O)Nc2ccccn2)C1c1ccccc1Cl (stereo unspecified)
- ED50 ([1]; Mus sp., po, read-out: ED50): 49 mg/kg

Compound: CCO/C(O)=C1\C(COCCn2c(C)nc3ncccc32)=NC(C)=C(C(=O)Nc2ccccn2)C1c1ccccc1Cl (stereo unspecified)
- ED50 ([1]; Mus sp., po, read-out: ED50): 31 mg/kg

Compound: CCO/C(O)=C1\C(COCCn2c(C)nc(C)c2C)=NC(C)=C(C(=O)OC)C1c1ccccc1Cl (stereo unspecified)
- IC50 [4]: 96 nM
- IC50 [5]: 14 nM

Compound: CCO/C(O)=C1\C(COCCn2c(C)nc(C)c2C)=NC(C)=C(C(=O)Nc2cccc(C)n2)C1c1ccccc1Cl (stereo unspecified)
- half-life [8]: 4.4 h
- bioavailability [3]: 9%
- ED50 ([1]; Mus sp., po, read-out: ED50): 4.5 mg/kg

Compound: CCO/C(O)=C1\C(COCCn2c(C)nc3ccncc32)=NC(C)=C(C(=O)Nc2ccccn2)C1c1ccccc1Cl (stereo unspecified)
- ED50 ([1]; Mus sp., po, read-out: ED50): 29 mg/kg

Compound: CCO/C(O)=C1\C(COCCn2c(C)nc(C)c2C)=NC(C)=C(C(=O)OC)[C@@H]1c1ccccc1Cl
- IC50 [4]: 41 nM
- IC50 [5]: 12 nM

Compound: CCOC(=O)C1=C(c2ccc(-n3c(C)nc4cnccc43)cc2)NC(C)=C(C(=O)Nc2ccccn2)C1c1ccccc1Cl (single isomer, unassigned; (+))
- ED50 [1]: 0.15 mg/kg
